Consider 6 compounds from PMC7734625, “Stabilization Strategies for Linear Minigastrin Analogues: Further Improvements via the Inclusion of Proline into the Peptide Sequence” (Journal of Medicinal Chemistry, 2020).

Data set [1] in a line: in vivo stability studies in BALB/c mice. The following applies: i.v. The procedure:
Metabolic studies evaluating the stability of the radioligands were carried out in 7- to 8-week-old female BALB/c mice. With the ^111In-labeled peptide derivatives, the studies were performed for the time point of 10 min p.i. (n = 2). With the ^177Lu-labeled peptide derivatives, additional studies were also carried out for the time point of 30 min and 60 min p.i. (n = 1 for each time point). To allow monitoring of the metabolites by analytical HPLC, the mice were injected with a higher amount of radioactivity (6–9 MBq indium-111, 30–45 MBq lutetium-177) corresponding to ∼1 nmol total peptide intravenously through a lateral tail vein. At different time points, the mice were euthanized by cervical dislocation and urine and a blood sample was collected. Liver and kidneys were excised and homogenized in 20 mM HEPES buffer pH 7.3. The amount of intact radiopeptide and the formation of metabolites was analyzed by analytical HPLC. Prior to injection into the HPLC system, all samples were treated as described for human serum and rat organ homogenate samples.

Data set [2] can be described thus: biodistribution in A431-CCK2R/A431-mock xenografted BALB/c nude mice. Format: in vivo. The following applies: female, athymic BALB/c nude, mouse, iv, 20 pmol, total radioactivity, 20 pmol, 4 h p.i. The procedure: (§1) Biodistribution studies evaluating the tumor uptake of the radiolabeled peptides were performed in 7- to 9-week-old female athymic BALB/c nude mice (Charles River, Sulzfeld, Germany). For the induction of tumor xenografts, 150 μL of DMEM containing 2 × 10^6 A431-CCK2R and A431-mock cells were injected subcutaneously in the right and left flank of each mouse, respectively. And 10–14 days after injection, tumors reached a medium weight of ∼0.25 g. The mice were divided into groups of four and injected intravenously via a lateral tail vein with 0.2 MBq of ^111In-labeled compound (0.02 nmol) and 0.7 and 1.5 MBq of the ^177Lu-labeled compound (0.02 and 0.15 nmol). At 4 and 12 h p.i., the mice were sacrificed and the tumors and other tissues (blood, lung, heart, muscle, spleen, intestine, liver, kidneys, stomach, and pancreas) were removed, weighed, and their radioactivity measured in the γ counter together with the rest of the body. Initial biodistribution studies were performed with the three ^177Lu-labeled CCK2R-targeting ligands at an injected peptide amount of 20 pmol for the time point of 4 h p.i. From these studies, two peptide analogues were selected to further characterize the biodistribution profile also at a later time point of 12 h p.i. and at a higher injected peptide amount of 150 pmol. Additional animal studies were performed for the ^111In-labeled conjugates. Percentage of injected activity per gram tissue (%IA/g), tumor-to-organ activity ratios, as well as whole body activity were calculated for each sample and statistical analysis using independent two-population t-test (significance level p < 0.05) was performed using Origin software. For the comparison of more than two groups, data were analyzed using one-way analysis of variance (ANOVA) Holm–Bonferroni-adjusted post hoc analysis (significance level p < 0.05) using Microsoft Excel 2010 software (Microsoft Excel 2010, Microsoft Corporation, WA).

A short description of data set [3]: protein binding in human serum (Sephadex G-50 size-exclusion chromatography). Type of data set: in vitro ADME. The procedure:
The protein binding in human serum (500 pmol/mL, n = 2) was assessed by Sephadex G-50 size-exclusion chromatography (GE Healthcare Illustra, Little Chalfont, U.K.) for up to 24 h.
A general note: In gel filtration, larger molecules generally elute earlier.

Data set [4] can be described thus: log D, octanol/PBS distribution. Type of data set: physicochemical. The following applies: 111In-labeled peptide.
The subject of data set [5] is A431-CCK2R/A431-mock xenografts. The data set is described as follows: biodistribution in A431-CCK2R/A431-mock xenografted BALB/c nude mice. Type of data set: in vivo. How it is done: as §1
The mark [6] stands for this setting: 4 h after incubation, read-out: protein binding (%) 4 h (converted).
Setting [7] is: 24 h after incubation, read-out: protein binding (%) 24 h (converted).

Read-outs that look alike come from different tables or passages of the source. Non-standard residues stand in square brackets, D forms with d. Residues, ends and D or L forms follow the SMILES beside them. *: point of attachment. DOTA = O=C(O)CN1CCN(CC(=O)O)CCN(CC(=O)*)CCN(CC(=O)O)CC1; 1Nal = N[C@@H](Cc1cccc2ccccc12)C(=O)O; NMeNle = CCCC[C@H](NC)C(=O)O Where only a bound is given, the exact number is not on record here.

`CCCC[C@@H](C(=O)N[C@@H](CC(=O)O)C(=O)N[C@@H](Cc1cccc2ccccc12)C(N)=O)N(C)C(=O)[C@H](Cc1c[nH]c2ccccc12)NC(=O)[C@@H]1CCCN1C(=O)[C@H](Cc1ccc(O)cc1)NC(=O)[C@H](C)NC(=O)[C@@H](CCC(=O)O)NC(=O)CN1CCN(CC(=O)O)CCN(CC(=O)O)CCN(CC(=O)O)CC1` [[^177Lu]Lu-3, metal not drawn] ({DOTA}-[dE]AYPW[NMeNle]D[1Nal]-NH2): the “intact radiopeptide in blood” value in data set [1] (60 min p.i., n = 1) came out at 63.5%. The “intact radiopeptide in kidneys” value in data set [1] (60 min p.i., n = 1) came to 7.2%. Moreover, the “intact radiopeptide in liver” value in data set [1] (60 min p.i., n = 1) is reported as 35.6%. Further, the “intact radiopeptide in urine” value in data set [1] (60 min p.i., n = 1) came out at 20.6%. Moreover, the tissue to tissue ratio at 4 h in data set [2] (A431-CCK2R xenograft tumor / blood, read-out: tumor-to-blood ratio) was determined as 709 ± 470; in data set [2] (A431-CCK2R xenograft tumor / kidney, read-out: tumor-to-kidney ratio), 4.52 ± 1.41; in data set [2] (A431-CCK2R xenograft tumor / liver, read-out: tumor-to-liver ratio) it was 58 ± 19.2; in data set [2] (A431-CCK2R xenograft tumor / stomach, read-out: tumor-to-stomach ratio) it was 6.49 ± 1.32. Moreover, the tissue uptake at 4 h was found to be 28.6 ± 7.95 %ID/g in data set [2] (A431-CCK2R xenograft tumor, read-out: tumor uptake in A431-CCK2R xenografts); 0.25 ± 0.06 %ID/g in data set [2] (A431-mock xenograft tumor, read-out: uptake in A431-mock xenografts); 0.06 ± 0.03 %ID/g in data set [2] (blood, read-out: uptake in blood); 0.08 ± 0.01 %ID/g in data set [2] (heart, read-out: uptake in heart); 0.95 ± 0.23 %ID/g in data set [2] (intestine, read-out: uptake in intestine); 6.61 ± 1.75 %ID/g in data set [2] (kidney, read-out: uptake in kidney). Also, the tissue uptake at 4 h in data set [2] (liver, read-out: uptake in liver) came to 0.52 ± 0.12 %ID/g; in data set [2] (lung, read-out: uptake in lung), 0.17 ± 0.05 %ID/g; in data set [2] (muscle, read-out: uptake in muscle), 0.09 ± 0.05 %ID/g; in data set [2] (pancreas, read-out: uptake in pancreas) it was 1.78 ± 0.72 %ID/g; in data set [2] (spleen, read-out: uptake in spleen) it was 0.19 ± 0.02 %ID/g; in data set [2] (stomach, read-out: uptake in stomach), 4.73 ± 2.29 %ID/g.
As for `CCCC[C@@H](C(=O)N[C@@H](CC(=O)O)C(=O)N[C@@H](Cc1cccc2ccccc12)C(N)=O)N(C)C(=O)[C@H](Cc1c[nH]c2ccccc12)NC(=O)CNC(=O)[C@H](Cc1ccc(O)cc1)NC(=O)[C@@H]1CCCN1C(=O)[C@@H](CCC(=O)O)NC(=O)CN1CCN(CC(=O)O)CCN(CC(=O)O)CCN(CC(=O)O)CC1` [[^111In]In-1, metal not drawn] ({DOTA}-[dE]PYGW[NMeNle]D[1Nal]-NH2), the fraction unbound was 0.555 in data set [3] (setting [6]) and 0.472 in data set [3] (setting [7]). In addition, the logD – broadly, lipophilicity at a set pH, counting ionised and neutral species – in data set [4] is -2.03.
Consider `CCCC[C@@H](C(=O)N[C@@H](CC(=O)O)C(=O)N[C@@H](Cc1cccc2ccccc12)C(N)=O)N(C)C(=O)[C@H](Cc1c[nH]c2ccccc12)NC(=O)CNC(=O)[C@@H]1CCCN1C(=O)[C@H](Cc1ccc(O)cc1)NC(=O)[C@@H](CCC(=O)O)NC(=O)CN1CCN(CC(=O)O)CCN(CC(=O)O)CCN(CC(=O)O)CC1` [[^111In]In-2] [metal not drawn] ({DOTA}-[dE]YPGW[NMeNle]D[1Nal]-NH2), for which, in data set [1] (10 min p.i.), the “intact radiopeptide in blood” value is on record as 82.3 ± 1.8%, the “intact radiopeptide in kidneys” value amounted to 30.2 ± 0.5%, the “intact radiopeptide in liver” value is 73.9 ± 1.2% and the “intact radiopeptide in urine” value amounted to 30.3 ± 5.9%.
Turning to `CCCC[C@@H](C(=O)N[C@@H](CC(=O)O)C(=O)N[C@@H](Cc1cccc2ccccc12)C(N)=O)N(C)C(=O)[C@H](Cc1c[nH]c2ccccc12)NC(=O)CNC(=O)[C@@H]1CCCN1C(=O)[C@H](Cc1ccc(O)cc1)NC(=O)[C@@H](CCC(=O)O)NC(=O)CN1CCN(CC(=O)O)CCN(CC(=O)O)CCN(CC(=O)O)CC1` [[^177Lu]Lu-2] [metal not drawn] ({DOTA}-[dE]YPGW[NMeNle]D[1Nal]-NH2), in data set [1] (60 min p.i., n = 1), the “intact radiopeptide in blood” value turned out to be 79.1%, the “intact radiopeptide in kidneys” value was determined as 11.0%, the “intact radiopeptide in liver” value was found to be 74.5% and the “intact radiopeptide in urine” value came out at 18.8%. Also, in data set [5] (150 pmol, 4 h p.i.), the “tumor uptake in A431-CCK2R xenografts” value is 15.26 ± 6.84 % IA/g. The compound further gave a tumor retention in data set [5] (A431-CCK2R xenografts, 12 h p.i. relative to 4 h p.i., 20 pmol) greater than 60%. The “reduction of tumor uptake in A431-CCK2R xenografts” value in data set [5] (injected peptide amount increased to 150 pmol vs 20 pmol, 4 h p.i.) is “about 50%”.
In the case of `CCCC[C@@H](C(=O)N[C@@H](CC(=O)O)C(=O)N[C@@H](Cc1cccc2ccccc12)C(N)=O)N(C)C(=O)[C@H](Cc1c[nH]c2ccccc12)NC(=O)CNC(=O)[C@@H]1CCCN1C(=O)[C@H](Cc1ccc(O)cc1)NC(=O)[C@@H](CCC(=O)O)NC(=O)CN1CCN(CC(=O)O)CCN(CC(=O)O)CCN(CC(=O)O)CC1` [[^111In]In-2, metal not drawn] ({DOTA}-[dE]YPGW[NMeNle]D[1Nal]-NH2), the results for the fraction unbound in data set [3] (setting [6]) and in data set [3] (setting [7]) were 0.432 and 0.466, respectively. In data set [4], this compound showed a logD of -1.75.
On the same counts, the results for `CCCC[C@@H](C(=O)N[C@@H](CC(=O)O)C(=O)N[C@@H](Cc1cccc2ccccc12)C(N)=O)N(C)C(=O)[C@H](Cc1c[nH]c2ccccc12)NC(=O)[C@@H]1CCCN1C(=O)[C@H](Cc1ccc(O)cc1)NC(=O)[C@H](C)NC(=O)[C@@H](CCC(=O)O)NC(=O)CN1CCN(CC(=O)O)CCN(CC(=O)O)CCN(CC(=O)O)CC1` [[^111In]In-3, metal not drawn] ({DOTA}-[dE]AYPW[NMeNle]D[1Nal]-NH2) are 0.588, 0.54 and -2.05.
